Among the data in US20070027150A1 (priority 2005, published 2007) are IC50 values, retold here.

Structures are written as SMILES.

The first experiment addresses His-tagged N-terminal ATP binding domain (amino acid residues 9-236) of HSP90α (Homo sapiens, UniProt P07900). Nature of the experiment: HSP90 inhibitor binding potency: TRF competition binding assay. The conditions noted are these: Table I; read-out: Hsp90 IC50 Range. In a few lines: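 Competition against biotinylated radicicol for binding to the His-tagged 9-236 ATP domain of HSP90α: 2 h, room temperature, HEPES/MgCl2/KCl/BSA buffer. Streptavidin capture, then europium-labeled anti-His antibody and enhancement solution; europium counts give IC50.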
In general, IC50 refers to the concentration that inhibits the measured activity by half. In the case of `Cc1nc(N)nc2c1C(=O)CC(c1ccc(F)cc1C1CCCCC1)C2` (centres unmarked) [Compound 172, 2-amino-7-(2-cyclohexyl-4-fluorophenyl)-4-methyl-7,8-dihydroquinazolin-5(6H)-one], the IC50 was in the range of 1 to 10 µM.

Turning to `Cc1cccc(-c2ccccc2C2CC(=O)c3c(C)nc(N)nc3C2)c1` (centres unmarked) [Compound 50, 2-amino-4-methyl-7-(3′-methyl-1,1′-biphenyl-2-yl)-7,8-dihydroquinazolin-5(6H)-one], the IC50 is 1 to 10 µM.

Turning to `COc1ncccc1-c1cc(F)ccc1C1CC(=O)c2c(C)nc(N)nc2C1` (centres unmarked) [Compound 99, 2-amino-7-[4-fluoro-2-(2-methoxy-pyridin-3-yl)-phenyl]-4-methyl-7,8-dihydro-6H-quinazolin-5-one], the IC50 is below 1 µM. Take `Cc1nc(N)nc2c1C(=O)CC(c1ccccc1OC(C)C)C2` (centres unmarked) [Compound 149, 2-amino-7-(2-isopropoxy-phenyl)-4-methyl-7,8-dihydro-6H-quinazolin-5-one]: the 50% inhibitory concentration (IC50) was below 1 µM. Consider `Cc1nc(N)nc2c1C(=O)CC(c1ccccc1-c1ccc(F)nc1)C2` (centres unmarked) [Compound 56, 2-amino-7-[2-(6-fluoropyridin-3-yl)phenyl]-4-methyl-7,8-dihydroquinazolin-5(6H)-one], for which the IC50 is below 1 µM.

Consider `Cc1ccnc(-c2ccccc2C2CC(=O)c3c(C)nc(N)nc3C2)c1` (centres unmarked) [Compound 118, 2-amino-4-methyl-7-[2-(4-methylpyridin-2-yl)phenyl]-7,8-dihydroquinazolin-5(6H)-one], for which the IC50 was below 1 µM.

As for `Cc1nc(N)nc2c1C(=O)CC(c1ccccc1Oc1ccc(F)cc1)C2` (centres unmarked) [Compound 139, 2-amino-7-[2-(4-fluorophenoxy)phenyl]-4-methyl-7,8-dihydroquinazolin-5(6H)-one], the IC50 fell in the range of 1 to 10 µM. Consider `Cc1nc(N)nc2c1C(=O)CC(c1ccccc1-c1ccccc1CO)C2` (centres unmarked) [Compound 68, 2-amino-7-[2′-(hydroxymethyl)-1,1′-biphenyl-2-yl]-4-methyl-7,8-dihydroquinazolin-5(6H)-one], for which the IC50 was below 1 µM. In the case of `Cc1nc(N)nc2c1C(=O)CC(c1ccccc1-c1ccccc1OC(F)(F)F)C2` (centres unmarked) [Compound 111, 2-amino-4-methyl-7-[2′-(trifluoromethoxy)-1,1′-biphenyl-2-yl]-7,8-dihydroquinazolin-5(6H)-one], the half-inhibitory concentration (IC50) is below 1 µM. The same measure, in the same setting: under `Cc1nc(N)nc2c1C(=O)CC(c1ccccc1-c1nccs1)C2` (centres unmarked) [Compound 35, 2-amino-4-methyl-7-[2-(1,3-thiazol-2-yl)phenyl]-7,8-dihydroquinazolin-5(6H)-one] stands below 1 µM. With `COc1cccc(Oc2ccccc2)c1C1CC(=O)c2c(C)nc(N)nc2C1` (centres unmarked) [Compound 22, 2-amino-7-(2-methoxy-6-phenoxyphenyl)-4-methyl-7,8-dihydroquinazolin-5(6H)-one], the IC50 is 1 to 10 µM. Still for that read-out and setting: under `Cc1nc(N)nc2c1C(=O)CC(c1ccccc1S(=O)(=O)c1ccccc1)C2` (centres unmarked) [Compound 23, 2-amino-7-(2-benzenesulfonyl-phenyl)-4-methyl-7,8-dihydro-6H-quinazolin-5-one] stands above 10 µM; under `Cc1nc(N)nc2c1C(=O)CC(c1c(C3CCCCC3)cnn1C)C2` (centres unmarked) [Compound 48, 2-amino-7-(4-cyclohexyl-2-methyl-2H-pyrazol-3-yl)-4-methyl-7,8-dihydro-6H-quinazolin-5-one], below 1 µM; under `Cc1ccc(Oc2ccccc2C2CC(=O)c3c(C)nc(N)nc3C2)cc1` (centres unmarked) [Compound 136, 2-amino-4-methyl-7-[2-(4-methylphenoxy)phenyl]-7,8-dihydroquinazolin-5(6H)-one], above 10 µM.

Turning to `Cc1nc(N)nc2c1C(=O)CC(c1ccc(F)cc1-c1cncnc1)C2` (centres unmarked) [Compound 60, 2-amino-7-(4-fluoro-2-pyrimidin-5-yl-phenyl)-4-methyl-7,8-dihydro-6H-quinazolin-5-one], the IC50 was below 1 µM. Still for that read-out and setting: for `Cc1nc(N)nc2c1C(=O)CC(c1ccccc1-c1cnccc1Cl)C2` (centres unmarked) [Compound 81, 2-amino-7-[2-(4-chloropyridin-3-yl)phenyl]-4-methyl-7,8-dihydroquinazolin-5(6H)-one] the value was below 1 µM; for `Cc1nc(N)nc2c1C(=O)CC(c1cnccc1-c1ccccc1)C2` (centres unmarked) [Compound 161, 2-amino-4-methyl-7-(4-phenylpyridin-3-yl)-7,8-dihydroquinazolin-5(6H)-one], below 1 µM; for `Cc1nc(N)nc2c1C(=O)CC(c1ccccc1-c1cccc3cc[nH]c13)C2` (centres unmarked) [Compound 129, 2-amino-7-[2-(1H-indol-7-yl)phenyl]-4-methyl-7,8-dihydroquinazolin-5(6H)-one], below 1 µM. For `Cc1nc(N)nc2c1C(=O)CC(c1cccc(-c3cccnc3F)c1)C2` (centres unmarked) [Compound 54], the IC50 is above 10 µM. For `Cc1ccncc1-c1ccccc1C1CC(=O)c2c(C)nc(N)nc2C1` (centres unmarked) [Compound 121, 2-amino-4-methyl-7-[2-(4-methylpyridin-3-yl)phenyl]-7,8-dihydroquinazolin-5(6H)-one], the IC50 is above 10 µM.

The experiment is the same for the next values; noted with them: Table II; read-out: Hsp90 IC50 Range.
For the molecule `COc1ccc(-c2cccc(OC)n2)c(C2CC(=O)c3c(C)nc(N)nc3C2)c1` (centres unmarked) [Compound 252, 2-amino-7-[5-methoxy-2-(6-methoxy-pyridin-2-yl)-phenyl]-4-methyl-7,8-dihydro-6H-quinazolin-5-one], the concentration for half-maximal inhibition (IC50) was below 1 µM.

As for `CCc1nc(N)nc2c1C(=O)CC(c1ccc(F)cc1-c1cccc(OC)c1F)C2` (centres unmarked) [Compound 320, 2-amino-7-(5,2′-difluoro-3′-methoxy-biphenyl-2-yl)-4-ethyl-7,8-dihydro-6H-quinazolin-5-one], the half-maximal inhibitory concentration (IC50) is above 10 µM. Same read-out and setting: under `Cc1nc(N)nc2c1C(=O)CC(c1ccc(F)cc1-c1nccnc1NCCO)C2` (centres unmarked) [Compound 280, 2-amino-7-{4-fluoro-2-[3-(2-hydroxy-ethylamino)-pyrazin-2-yl]-phenyl}-4-methyl-7,8-dihydro-6H-quinazolin-5-one] stands 1 to 10 µM. Regarding `Cc1nc(N)nc2c1C(=O)CC(c1ccc(F)cc1-c1cccc(O)n1)C2` (centres unmarked) [Compound 264, 2-amino-7-[4-fluoro-2-(6-hydroxy-pyridin-2-yl)-phenyl]-4-methyl-7,8-dihydro-6H-quinazolin-5-one], the IC50 fell in the range of 1 to 10 µM. For `COc1cccc(-c2cc(F)c(C3CC(=O)c4c(C)nc(N)nc4C3)c(F)c2)n1` (centres unmarked) [Compound 256, 2-amino-7-[2,6-difluoro-4-(6-methoxy-pyridin-2-yl)-phenyl]-4-methyl-7,8-dihydro-6H-quinazolin-5-one], the IC50 was above 10 µM. Still for that read-out and setting: under `C#CCCOc1cc(F)ccc1C1CC(=O)c2c(C)nc(N)nc2C1` (centres unmarked) [Compound 192, 2-amino-7-(2-but-3-ynyloxy-4-fluoro-phenyl)-4-methyl-7,8-dihydro-6H-quinazolin-5-one] stands below 1 µM; under `Cc1nc(N)nc2c1C(=O)CC(c1c(-c3cccnc3F)cnn1Cc1ccccc1)C2` (centres unmarked) [Compound 215, 2-amino-7-[2-benzyl-4-(2-fluoro-pyridin-3-yl)-2H-pyrazol-3-yl]-4-methyl-7,8-dihydro-6H-quinazolin-5-one], 1 to 10 µM; under `Cc1nc(N)nc2c1C(=O)CC(c1ccc(F)cc1OCC1CCCC1)C2` (centres unmarked) [Compound 263, 2-amino-7-(2-cyclopentylmethoxy-4-fluoro-phenyl)-4-methyl-7,8-dihydro-6H-quinazolin-5-one], below 1 µM. On the same count and under the same terms, for `COc1ccnc(-c2cc(F)ccc2C2CC(=O)c3c(C)nc(N)nc3C2)n1` (centres unmarked) [Compound 257, 2-amino-7-[4-fluoro-2-(4-methoxy-pyrimidin-2-yl)-phenyl]-4-methyl-7,8-dihydro-6H-quinazolin-5-one] the value was below 1 µM.
